# Patent US10125111B2, “Benzofuran compounds for the treatment of hepatitis C” (BRISTOL-MYERS SQUIBB COMPANY, priority 2015, dated 2018)
# Read-outs that look alike come from different tables or passages of the source.
# Tested on: genotype 1b (Con-1) HCV replicon
# Experiment: HCV Replicon Luciferase Assay
# Type: cell-based
# Settings: Hepatitis C virus, 72 h, Huh-7 genotype 1b replicon, Renilla luciferase, 3 days incubation
# Method: The cell lines used to evaluate compounds consist of a human hepatocyte derived cell line (Huh-7) that constitutively expresses a genotype 1b (Con-1) HCV replicon or a genotype 1b (Con-1) HCV replicon with an asparagine replacing the cysteine at amino acid 316, or a genotype 2a (JFH-1) replicon, containing a Renilla luciferase reporter gene. These cells were maintained in Dulbecco's modified Eagle medium (DMEM) containing 10% FBS, 100 U/mL penicillin/streptomycin and 1.0 mg/mL G418.
# To evaluate compound efficacy, titrated compounds were transferred to sterile 384-well tissue culture treated plates, and the plates were seeded with HCV replicon cells (50 μL at a density of 2.4×10^3 cells/well) in DMEM containing 4% FBS (final DMSO concentration at 0.5%). After 3 days incubation at 37° C., cells were analyzed for Renilla Luciferase activity using the EnduRen substrate (Promega cat #E6485) according to the manufacturer's directions. Briefly, the EnduRen substrate was diluted in DMEM and then added to the plates to a final concentration of 7.5 μM. The plates were incubated for at least 1 h at 37° C. then read on a Viewlux Imager (PerkinElmer) using a luminescence program. The 50% effective concentration (EC50) was calculated using the four-parameter logistic Formula noted above.
# Compound EC50 data is expressed as A: <100 nM; B=100-1000 nM; C>1000 nM).
SMILES,EC50 (read-out: EC50 1b (class)) [µM],EC50 (read-out: EC50 (uM) 1b) [µM]
CNC(=O)c1c(-c2ccc(F)cc2)oc2cc(N(CC#N)S(C)(=O)=O)c(-c3cccc(C(=O)OC)c3)cc12 [Compound 1001],< 0.1,0.0578
CNC(=O)c1c(-c2ccc(F)cc2)oc2cc(N(CC#N)S(C)(=O)=O)c(-c3cccc(C(=O)NC(C)(C)C(F)(F)F)c3)cc12 [Compound 1002],< 0.1,–
CNC(=O)c1c(-c2ccc(F)cc2)oc2cc(N(CC3CC3)S(C)(=O)=O)c(-c3cccc(C(=O)OC)c3)cc12 [Compound 2001],< 0.1,–
CNC(=O)c1c(-c2ccc(F)cc2)oc2cc(N(CC3CC3)S(C)(=O)=O)c(-c3cccc(C(=O)O)c3)cc12 [Compound 2002],> 1,7.55
CNC(=O)c1c(-c2ccc(F)cc2)oc2cc(N(CC3CC3)S(C)(=O)=O)c(-c3cccc(C(=O)NC(C)(C)C(F)(F)F)c3)cc12 [Compound 2003],< 0.1,–
CNC(=O)c1c(-c2ccc(F)cc2)oc2cc(N(CC3CC3)S(C)(=O)=O)c(-c3cccc(C(=O)NC(CF)(CF)CF)c3)cc12 [Compound 2004],< 0.1,–
CNC(=O)c1c(-c2ccc(F)cc2)oc2cc(N(CC3CC3)S(C)(=O)=O)c(-c3cccc(C(=O)NC(C)(C)C#N)c3)cc12 [Compound 2005],< 0.1,0.0147
[2H]C([2H])([2H])C(NC(=O)c1cccc(-c2cc3c(C(=O)NC)c(-c4ccc(F)cc4)oc3cc2N(CC2CC2)S(C)(=O)=O)c1)(C([2H])([2H])[2H])C([2H])([2H])[2H] [Compound 2006],< 0.1,–
CNC(=O)c1c(-c2ccc(F)cc2)oc2cc(N(CCF)S(C)(=O)=O)c(-c3cccc(C(=O)NC(C)(C)C(F)(F)F)c3)cc12 [Compound 3003],< 0.1,–
CNC(=O)c1c(-c2ccc(F)cc2)oc2cc(N(CCF)S(C)(=O)=O)c(-c3cccc(C(=O)NC(CF)(CF)CF)c3)cc12 [Compound 3004],< 0.1,–
CNC(=O)c1c(-c2ccc(F)cc2)oc2cc(N(CCF)S(C)(=O)=O)c(-c3cccc(C(=O)NC(C)(C)C#N)c3)cc12 [Compound 3005],< 0.1,0.005
[2H]C([2H])([2H])C(NC(=O)c1cccc(-c2cc3c(C(=O)NC)c(-c4ccc(F)cc4)oc3cc2N(CCF)S(C)(=O)=O)c1)(C([2H])([2H])[2H])C([2H])([2H])[2H] [Compound 3006],< 0.1,–
CC[C@@H](NC(=O)c1cccc(-c2cc3c(C(=O)NC)c(-c4ccc(F)cc4)oc3cc2N(CCF)S(C)(=O)=O)c1)C1CC1 [Compound 3007],< 0.1,0.0057
CC[C@H](NC(=O)c1cccc(-c2cc3c(C(=O)NC)c(-c4ccc(F)cc4)oc3cc2N(CCF)S(C)(=O)=O)c1)C1CC1 [Compound 3008],< 0.1,–
CNC(=O)c1c(-c2ccc(F)cc2)oc2cc(N(CCF)S(C)(=O)=O)c(-c3cccc(C(=O)N[C@@H](C)C4CC4)c3)cc12 [Compound 3009],< 0.1,–
CNC(=O)c1c(-c2ccc(F)cc2)oc2cc(N(CCF)S(C)(=O)=O)c(-c3cccc(C(=O)NC(C4CC4)C4CC4)c3)cc12 [Compound 3010],< 0.1,0.0056
CNC(=O)c1c(-c2ccc(F)cc2)oc2cc(N(CCF)S(C)(=O)=O)c(-c3cccc(C(=O)NC4(C#N)CC4)c3)cc12 [Compound 3011],< 0.1,–
CNC(=O)c1c(-c2ccc(F)cc2)oc2cc(N(CCF)S(C)(=O)=O)c(-c3cccc(C(=O)NCC(F)(F)C(F)(F)F)c3)cc12 [Compound 3012],< 0.1,0.0032
CNC(=O)c1c(-c2ccc(F)cc2)oc2cc(N(CCF)S(C)(=O)=O)c(-c3cccc(C(=O)NC(C)(C)CF)c3)cc12 [Compound 3013],< 0.1,–
CNC(=O)c1c(-c2ccc(F)cc2)oc2cc(N(CCF)S(C)(=O)=O)c(-c3cccc(C(=O)NC(C)(C)C(=O)OC)c3)cc12 [Compound 3014],< 0.1,–
CNC(=O)c1c(-c2ccc(F)cc2)oc2cc(N(CCF)S(C)(=O)=O)c(-c3cccc(C(=O)NCC(C)(C)C)c3)cc12 [Compound 3015],< 0.1,–
CNC(=O)c1c(-c2ccc(F)cc2)oc2cc(N(CCF)S(C)(=O)=O)c(-c3cccc(C(=O)NC(C)(C)C)c3)cc12 [Compound 3016],< 0.1,–
CNC(=O)c1c(-c2ccc(F)cc2)oc2cc(N(CCF)S(C)(=O)=O)c(-c3cccc(C(=O)N4CCC(C)(C)C4)c3)cc12 [Compound 3017],< 0.1,0.0063
CNC(=O)c1c(-c2ccc(F)cc2)oc2cc(N(CCF)S(C)(=O)=O)c(-c3cccc(C(=O)N4CCCC4c4ccc(Cl)cc4)c3)cc12 (stereo not shown) [Compound 3018],< 0.1,–

SMILES,EC50 (read-out: EC50 1b (class)) [µM],EC50 (read-out: EC50 (uM) 1b) [µM]
CNC(=O)c1c(-c2ccc(F)cc2)oc2cc(N(CCF)S(C)(=O)=O)c(-c3cccc(C(=O)N4CCN(C)CC4c4ccccc4)c3)cc12 (stereo not shown) [Compound 3019],< 0.1,–
CNC(=O)c1c(-c2ccc(F)cc2)oc2cc(N(CCF)S(C)(=O)=O)c(-c3cccc(C(=O)N4CCN(c5ccc(Cl)cc5)CC4)c3)cc12 [Compound 3020],< 0.1,0.0094
CNC(=O)c1c(-c2ccc(F)cc2)oc2cc(N(CCF)S(C)(=O)=O)c(-c3cccc(C(=O)N[C@H](C)C(F)(F)F)c3)cc12 [Compound 3021],< 0.1,–
CNC(=O)c1c(-c2ccc(F)cc2)oc2cc(N(CCF)S(C)(=O)=O)c(-c3cccc(C(=O)N4CCCC4c4cccnc4)c3)cc12 (stereo not shown) [Compound 3022],< 0.1,–
CNC(=O)c1c(-c2ccc(F)cc2)oc2cc(N(CCF)S(C)(=O)=O)c(-c3cccc(C(=O)N4[C@H](C)CC[C@H]4C)c3)cc12 [Compound 3023],< 0.1,–
CNC(=O)c1c(-c2ccc(F)cc2)oc2cc(N(CCF)S(C)(=O)=O)c(-c3cccc(C(=O)N4CCCC4C)c3)cc12 (stereo not shown) [Compound 3024],< 0.1,–
CNC(=O)c1c(-c2ccc(F)cc2)oc2cc(N(CCF)S(C)(=O)=O)c(-c3cccc(C(=O)N4CCN(c5ccccc5)CC4)c3)cc12 [Compound 3025],< 0.1,–
CNC(=O)c1c(-c2ccc(F)cc2)oc2cc(N(CCF)S(C)(=O)=O)c(-c3cccc(C(=O)N4[C@@H](COC)CC[C@@H]4COC)c3)cc12 [Compound 3026],0.1 to 1,0.332
CCC1CCCN1C(=O)c1cccc(-c2cc3c(C(=O)NC)c(-c4ccc(F)cc4)oc3cc2N(CCF)S(C)(=O)=O)c1 (stereo not shown) [Compound 3027],< 0.1,–
CNC(=O)c1c(-c2ccc(F)cc2)oc2cc(N(CCF)S(C)(=O)=O)c(-c3cccc(C(=O)N4CCN(C(=O)OC(C)(C)C)CC4)c3)cc12 [Compound 3028],< 0.1,–
CNC(=O)c1c(-c2ccc(F)cc2)oc2cc(N(CCF)S(C)(=O)=O)c(-c3cccc(C(=O)N4CCC[C@H]4C(=O)OC(C)(C)C)c3)cc12 [Compound 3029],< 0.1,–
CNC(=O)c1c(-c2ccc(F)cc2)oc2cc(N(CCF)S(C)(=O)=O)c(-c3cccc(C(=O)N4CCC[C@@H]4CO)c3)cc12 [Compound 3030],0.1 to 1,0.139
CNC(=O)c1c(-c2ccc(F)cc2)oc2cc(N(CCF)S(C)(=O)=O)c(-c3cccc(C(=O)N4CCN(C(=O)OC(C)(C)C)CC4c4ccccc4)c3)cc12 (stereo not shown) [Compound 3031],< 0.1,–
CNC(=O)c1c(-c2ccc(F)cc2)oc2cc(N(CCF)S(C)(=O)=O)c(-c3cccc(C(=O)N4CCN(c5cccnc5)CC4)c3)cc12 [Compound 3032],> 1,2.64
CNC(=O)c1c(-c2ccc(F)cc2)oc2cc(N(CCF)S(C)(=O)=O)c(-c3cccc(C(=O)N4CCN(CC(C)C)CC4)c3)cc12 [Compound 3033],< 0.1,–
CNC(=O)c1c(-c2ccc(F)cc2)oc2cc(N(CCF)S(C)(=O)=O)c(-c3cccc(C(=O)N4CCC(c5ccc(F)cc5)C4)c3)cc12 (stereo not shown) [Compound 3034],< 0.1,0.0117
CNC(=O)c1c(-c2ccc(F)cc2)oc2cc(N(CCF)S(C)(=O)=O)c(-c3cccc(C(=O)N4CCC[C@H]4CO)c3)cc12 [Compound 3035],0.1 to 1,–
CNC(=O)c1c(-c2ccc(F)cc2)oc2cc(N(CCF)S(C)(=O)=O)c(-c3cccc(C(=O)N4CCC(NC(C)=O)C4)c3)cc12 (stereo not shown) [Compound 3036],> 1,–
CNC(=O)c1c(-c2ccc(F)cc2)oc2cc(N(CCF)S(C)(=O)=O)c(-c3cccc(C(=O)N4CC[C@H](O)C4)c3)cc12 [Compound 3037],> 1,–
CNC(=O)c1c(-c2ccc(F)cc2)oc2cc(N(CCF)S(C)(=O)=O)c(-c3cccc(C(=O)N4CC[C@@H](NC(=O)OC(C)(C)C)C4)c3)cc12 [Compound 3038],< 0.1,–
CNC(=O)c1c(-c2ccc(F)cc2)oc2cc(N(CCF)S(C)(=O)=O)c(-c3cccc(C(=O)N4CCC(O)C4)c3)cc12 (stereo not shown) [Compound 3039],> 1,1.61
CNC(=O)c1c(-c2ccc(F)cc2)oc2cc(N(CCF)S(C)(=O)=O)c(-c3cccc(C(=O)N4CCC(c5cccc(Cl)c5)C4)c3)cc12 (stereo not shown) [Compound 3040],< 0.1,0.0413
CNC(=O)c1c(-c2ccc(F)cc2)oc2cc(N(CCF)S(C)(=O)=O)c(-c3cccc(C(=O)N4CCC[C@H]4C(=O)OC)c3)cc12 [Compound 3041],0.1 to 1,–
CNC(=O)c1c(-c2ccc(F)cc2)oc2cc(N(CCF)S(C)(=O)=O)c(-c3cccc(C(=O)N4CC(NC(=O)OC(C)(C)C)C4)c3)cc12 [Compound 3042],0.1 to 1,0.138
